In ChEMBL document CHEMBL1147170, “Synthesis and biological evaluation of two glycerolipidic prodrugs of didanosine for direct lymphatic delivery against HIV” (Bioorg Med Chem Lett, 2007):

Key:
[1] = test system: Human immunodeficiency virus 1; assay: Antiviral activity against HIV1 LAI activity in phytohemagglutininin-activated human PBMC assessed as viral replication after 7 days; format: functional; settings: for EC50: Human immunodeficiency virus 1, LAI, 168 h, read-out: ED50 (the source's name)
[2] = test system: PBMC; assay: (§1) Cytotoxicity against phytohemagglutininin-activated human PBMC after 7 days by MTT assay; format: cell-based; settings: pbmc, 168 h
[3] = as §1; format: cell-based; settings: phytohemagglutinin-activated PBMC, read-out: CD50

Row | Compound | ED90 [1] | EC50 [1] | CD90 [2] | CC50 at 168 h [3]
1 | CCCCCCCCCCCCCCCC(=O)OCC(COC(=O)CCCCCCCCCCCCCCC)OC(=O)CCCC(=O)OC[C@@H]1CC[C@H](n2cnc3c(=O)[nH]cnc32)O1 | >12 µM | 2.8 µM | > 12 µM | > 12 µM
2 | CCCCCCCCCCCCCCCC(=O)OCC(COC(=O)CCCCCCCCCCCCCCC)OC(=O)CCCCCOP(=O)(O)OC[C@@H]1CC[C@H](n2cnc3c(=O)[nH]cnc32)O1 | >50 µM | 28.5 µM | > 50 µM | > 50 µM
3 | O=c1[nH]cnc2c1ncn2[C@H]1CC[C@@H](CO)O1 [DIDANOSINE] | 4.8 µM | 1.2 µM | > 50 µM | 40 µM
